The values below come from patent US11478469B2, “Combination product of BCL-2 inhibitor and MDM2 inhibitor and use thereof in the prevention and/or treatment of diseases” (ASCENTAGE PHARMA (SUZHOU) CO., LTD., priority 2018, dated 2022).

pIC50: −log10 of the molar value.

The test system of assay [1] is MOLM-13-Luc systemic human AML. Description: Systemic MOLM-13-Luc human AML xenograft model in NOD SCID mice. In kind it is in vivo, mouse. The following applies: compound 6 100 mg/kg qd×21 d; APG-115 100 mg/kg daily for seven days. As to the method: (1) The combined benefits of APG-115 and compound 6 for the therapy of AML was further evaluated in a difficult-to-treat disseminated MOLM-13-Luc systemic human AML model.
The MOLM-13-Luc tumor cells were maintained in vitro as suspension culture in RPMI 1640 medium supplemented with 10% heat inactivated fetal bovine serum (Gibco product), 100 U/mL penicillin and 100 μg/mL streptomycin, at 37° C. in an atmosphere of 5% CO2 in air. The tumor cells were routinely subcultured twice weekly. The cells growing in an exponential growth phase were harvested and counted for tumor inoculation.
The female NOD SCID mice were pre-treated with 2 times of 150 mg/kg cyclophosphamide, QD, at 24 hours before cell inoculation. Each mouse was inoculated with MOLM-13-Luc tumor cells (2×10^6/mouse) in 0.2 mL of PBS via tail vein for tumor development.
Animals were selected for grouping on day 3 after tumor implantation when the average bioluminescence measurement reached 3.18×107 photons/sec. A high dose pulse regimen (i.e. 100 mg/kg daily for seven days) was applied for APG-115 in this study.
Background: In xenograft studies the graft and the host belong to different species.

In assay [2] the test system is OCI-AML-3 (acute myeloid leukemia (AML)). Description: CellTiter-Glo (CTG) cell proliferation assay, OCI-AML-3. The class given is cell-based. The following applies: Homo sapiens; OCI-AML-3, single agent alone, 24 hours; read-out: IC50 for inhibition of proliferation. On the procedure:
Anti-proliferative effects were tested by CellTiter-Glo® (CTG) assay. Cells were seeded in 96-well plates and treated with different concentrations of test substance for 24 hours. […] Each test dose was tested with 3 replicate wells. Usually, 9 series of doses of the test substance were selected, and added to 96-well plates, 5 μl/well. For the combination experiment, the final volume of the two test substances was 5 μl/well. Each test dose was tested with 3 replicate wells. On the same plate, 3-6 wells were selected and added with 100 μl of dilution solution as a control group, and another 3-6 wells were used as a blank control. […] After mixing on a shaker for 2 minutes, leaving at room temperature for 10 minutes, the fluorescence value was read by using a Biotek synergy HIMF plate reader. […] For the combination test, the cell viability was calculated by normalizing the average OD value of 3 duplicate wells of the single drug control. […] Cell viability (%) values of Compound 6 alone and the combination of Compound 6 and APG-115 in the following malignant tumor cells were determined in the CTG experiment: OCI-AML-3 (acute myeloid leukemia (AML)), MV-4-11 (acute myeloid leukemia (AML)), KMS-26 (multiple myeloma (MM)), KMS-11 (multiple myeloma (MM)).

As for `CCN1[C@@H](C(=O)NC23CCC(C(=O)O)(CC2)CC3)[C@H](c2cccc(Cl)c2F)[C@]2(C(=O)Nc3cc(Cl)ccc32)C12CCCCC2` [APG-115], the “anti-leukemia activity / bioluminescence signals in words” value in assay [1] is “remarkedly decreased bioluminescence signals”. The pIC50 in assay [2] is 5.62.
In the case of `O=C(NS(=O)(=O)c1ccc(NC[C@H]2COCCO2)c([N+](=O)[O-])c1)c1ccc(N2CCN(CC3=C(c4ccc(Cl)cc4)CC4(CCC4)CC3)CC2)cc1Oc1cnc2[nH]ccc2c1` [Compound 6, (S)-N-((4-(((1,4-dioxan-2-yl)methyl)amino)-3-nitrophe-nyl)sulfonyl)-2-((1H-pyrrolo[2,3-b]pyridin-5-yl)oxy)-4-(4-((6-(4-chlorophenyl)spiro[3.5]non-6-en-7-yl)meth-yl)piperazin-1-yl)benzamide], the “anti-leukemia activity / bioluminescence signals in words” value in assay [1] was “limited anti-leukemia activity”. Moreover, in assay [2], the pIC50 is 4.99.
